From patent US20140066842A1, “MICRONEEDLE DEVICES AND METHODS” (3M INNOVATIVE PROPERTIES COMPANY, priority 2011, published 2014) come the findings set out here.

Series [1] in a line: Discoloration of tissue in which local anesthetic/dose-extending component are administered. As to conditions: dose-extending component administered with local anesthetic by the microneedle devices. The format is in vivo.
Series [2] is described as follows: In vivo delivery of lidocaine to swine skin tissue from coated microneedle array (biopsy, LC/MS/MS). The following applies: dose-extending component delivered with lidocaine and/or prilocaine by microneedles. The protocol: The in vivo delivery of lidocaine to tissue using the coated microneedle array described above was determined using naïve young adult female mixed breed agricultural swine (Yorkshire X from Midwest Research Swine, Gibbon, Minn.). Swine with minimal skin pigmentation and weighing 10-40 kg were selected for the study. The animals were initially sedated with ketamine (10 mg/kg) and glycopyrrolate (0.011 mg/kg) was intramuscularly administered to reduce salivary, tracheobronchial, and pharyngeal secretions. Hair and dirt on pig skin at the intended application sites were removed prior to application of the microneedle array to minimize complications Skin test sites were selected based on lack of skin pigmentation and skin damage. The hair was first clipped using an electric shaver followed by shaving with a wet multi-blade disposable razor (Schick Xtreme3) and shaving cream (Gillette Foamy Regular) while the animal was under anesthesia.
A light surgical plane of anesthesia was achieved by administering 1.5-5% isoflurane in 1.5-4 L of oxygen by mask. Anesthetized animals were placed in lateral recumbency on insulated table pads. During the experiment, the animals were placed on a heated table to control body temperature at approximately 38° C. Animals were observed continuously until normal recovery was attained. […] The biopsy punch samples were stored at −20° C. until analyzed. […]
Protein precipitation was used to prepare the digested tissue samples for analysis by LC/MS/MS. […] The resulting sample was quantitatively analyzed using a Sciex API3000 triple quadrupole mass spectrometer (Applied Biosystems, Foster City, Calif.) running in positive ion mode using Turbo IonSpray interface to monitor the product ions resulting from the m/z transitions: 235→86.2 for lidocaine and 247→97.5 for mepivacaine. The linear range for lidocaine was 50.0 to 20,000 ng/mL evaluated using 1/x^2 curve weighting. […]

In the case of `N=C(N)NC(=O)Cc1c(Cl)cccc1Cl` [guanfacine], the “Discoloration of the tissue” value in series [1] is “without any appreciable tissue discoloration”. The “Extension of the local anesthetic dose (tissue levels compared with local anesthetic without the alpha adrenergic agonist)” value in series [2] is listed as “extend the local anesthetic dose”.

`Nc1cc(Cl)c(N=C2NCCN2)c(Cl)c1` [apraclonidine]: the “Discoloration of the tissue” value in series [1] was “without any appreciable tissue discoloration”. Also, the “Extension of the local anesthetic dose (tissue levels compared with local anesthetic without the alpha adrenergic agonist)” value in series [2] was “extend the local anesthetic dose”.

On to `CNC[C@H](O)c1ccc(O)c(O)c1` [epinephrine], for which the “Discoloration of the tissue” value in series [1] is given as “cause discoloration of the tissue, resulting in a blue or bruised appearance”.

On to `Clc1cccc(Cl)c1N=C1NCCN1` [clonidine], for which the “Discoloration of the tissue” value in series [1] is “without any appreciable tissue discoloration”. The “Extension of the local anesthetic dose (tissue levels compared with local anesthetic without the alpha adrenergic agonist)” value in series [2] is reported as “extend the local anesthetic dose”.
